These results are taken from ChEMBL document CHEMBL3856231 (J Med Chem, 2016).

A value given as a limit tells only on which side of the number the result lay.

Data set [1] deals with Voltage-gated inwardly rectifying potassium channel KCNH2 (Homo sapiens, UniProt Q12809). In words: Inhibition of human ERG.
The nature of data set [2]: Drug level in plasma of NPM-ALK expressing human SUP-M2 cells xenografted mouse at 30 mg/kg, po administered as single dose measured at 12 hrs by LC-MS/MS analysis. The format is ADME, organism-based. A general note: Xenograft models place foreign cells or tissue in a host animal.
The nature of data set [3]: Half life in rat liver microsomes by LC/MS/MS analysis. The format is ADME. In general terms: Liver microsomes are a subcellular fraction often used to study metabolism.
A short description of data set [4]: Half life in cynomolgus monkey liver microsomes by LC/MS/MS analysis. The format is ADME, Macaca fascicularis.
Data set [5] is described as follows: Drug level in tumor of NPM-ALK expressing human SUP-M2 cells xenografted mouse at 30 mg/kg, po administered as single dose measured at 12 hrs by LC-MS/MS analysis. The data set is classed as ADME, organism-based, Neoplasm. The note with it: read-out: Drug uptake.
Data set [6] can be described thus: Drug level in plasma of NPM-ALK expressing human SUP-M2 cells xenografted mouse at 30 mg/kg, po administered as single dose measured at 24 hrs by LC-MS/MS analysis. The data set is classed as ADME, organism-based.
Data set [7] can be described thus: Cmax in CD-1 mouse at 10 mg/kg, po by LC/MS/MS analysis. The format is ADME, organism-based. The arrangement: dose 10 mg/kg, route oral. To be noted: in vivo.
In another data set the target is Cytochrome P450 2C9 (Homo sapiens, UniProt P11712). Put plainly: Inhibition of CYP2C9 in human liver microsomes using diclofenac as substrate in presence of NADPH by LC/MS/MS analysis. The format is ADME.
Chain of Cytochrome P450 2C9 (P11712 whole entry): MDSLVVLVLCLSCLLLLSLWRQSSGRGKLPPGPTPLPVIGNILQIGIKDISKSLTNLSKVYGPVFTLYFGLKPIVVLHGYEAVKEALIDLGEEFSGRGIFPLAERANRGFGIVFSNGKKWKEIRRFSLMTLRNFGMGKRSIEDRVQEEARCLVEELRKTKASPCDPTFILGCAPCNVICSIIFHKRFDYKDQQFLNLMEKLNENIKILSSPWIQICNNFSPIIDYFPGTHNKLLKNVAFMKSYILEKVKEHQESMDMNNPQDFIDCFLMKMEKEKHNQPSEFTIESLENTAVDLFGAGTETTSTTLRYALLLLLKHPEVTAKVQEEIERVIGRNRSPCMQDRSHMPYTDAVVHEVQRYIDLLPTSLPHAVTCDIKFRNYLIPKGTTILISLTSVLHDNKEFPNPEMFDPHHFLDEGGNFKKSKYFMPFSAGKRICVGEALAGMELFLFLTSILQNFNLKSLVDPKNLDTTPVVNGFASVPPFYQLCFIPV

Chain of Voltage-gated inwardly rectifying potassium channel KCNH2 (Q12809 whole entry): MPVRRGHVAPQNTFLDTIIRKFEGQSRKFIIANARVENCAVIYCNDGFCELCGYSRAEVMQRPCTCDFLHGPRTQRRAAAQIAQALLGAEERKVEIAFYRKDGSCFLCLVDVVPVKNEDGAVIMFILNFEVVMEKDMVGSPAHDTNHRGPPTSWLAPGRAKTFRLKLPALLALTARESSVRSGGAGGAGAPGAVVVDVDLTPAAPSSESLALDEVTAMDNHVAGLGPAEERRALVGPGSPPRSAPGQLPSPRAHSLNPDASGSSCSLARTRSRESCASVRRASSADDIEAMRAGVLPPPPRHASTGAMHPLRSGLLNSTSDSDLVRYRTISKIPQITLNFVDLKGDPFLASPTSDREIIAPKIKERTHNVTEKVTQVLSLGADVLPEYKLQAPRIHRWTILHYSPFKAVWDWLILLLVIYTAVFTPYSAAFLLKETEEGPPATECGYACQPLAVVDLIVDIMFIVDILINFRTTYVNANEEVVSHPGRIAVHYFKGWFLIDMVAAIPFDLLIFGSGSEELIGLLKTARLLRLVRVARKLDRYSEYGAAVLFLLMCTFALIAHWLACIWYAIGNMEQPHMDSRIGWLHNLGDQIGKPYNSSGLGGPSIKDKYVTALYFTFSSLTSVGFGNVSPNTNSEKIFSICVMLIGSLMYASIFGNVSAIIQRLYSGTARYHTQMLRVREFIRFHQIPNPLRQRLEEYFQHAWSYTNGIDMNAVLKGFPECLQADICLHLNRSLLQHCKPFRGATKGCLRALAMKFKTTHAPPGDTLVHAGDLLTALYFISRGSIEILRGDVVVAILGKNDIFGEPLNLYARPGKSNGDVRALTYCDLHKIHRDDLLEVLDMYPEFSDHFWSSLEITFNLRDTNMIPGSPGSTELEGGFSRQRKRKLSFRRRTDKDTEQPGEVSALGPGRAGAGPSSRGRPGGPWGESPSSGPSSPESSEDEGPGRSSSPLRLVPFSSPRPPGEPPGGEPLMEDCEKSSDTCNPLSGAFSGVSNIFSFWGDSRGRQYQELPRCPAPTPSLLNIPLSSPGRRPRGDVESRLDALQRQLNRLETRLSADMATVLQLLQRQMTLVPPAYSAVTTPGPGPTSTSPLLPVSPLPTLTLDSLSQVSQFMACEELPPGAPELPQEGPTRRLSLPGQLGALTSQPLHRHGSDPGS

Regarding `CNC(=O)c1ccccc1Nc1nc(Nc2ccc3c(c2OC)CCC[C@H](N2CCN(CCO)CC2)C3)ncc1Cl` [CEP-37440], the figures for the IC50 (in data set [1]; on Cytochrome P450 2C9) were over 10 µM and over 5.6 µM, respectively. Further, the concentration at 12 h was determined as 4030 ng/mL in data set [2] and 8580 ng/g in data set [5]. Moreover, the half-life is 40 min in data set [3] and 21 min in data set [4]. Further, the concentration at 24 h in data set [6] worked out at 1160 ng/mL. The maximum concentration (Cmax) in data set [7] is 1530 ng/mL.

The term IC50 denotes the concentration needed to halve the response being measured. Broadly, the half-life is how long it takes for the measured level to halve. In general, Cmax refers to the peak of the concentration-time curve.
